The source of these data is patent US20080125493A1, “Use of agomelatine in obtaining medicaments intended for the treatment of periventricular leukomalacia” (LES LABORATOIRES SERVIER, priority 2006, published 2008).

The subject of the test is lesions of the white matter of the brain produced by intracerebral injection of ibotenate. Kind of test: Neuroprotective effects on ibotenate-induced white matter lesions in 5-day-old baby mice. It counts as in vivo. The method, then:
Immediately after the administration of 10 μg of ibotenate, there are injected by the i.p. route, in a final volume of 5 μl, from 0.005 to 5 mg/kg of agomelatine, 10 mg/kg of fluoxetine used as standard antidepressant control, or the solvent alone. In a second experiment, the i.p. injection following the intracerebral injection of ibotenate is carried out 2 hours, 4 hours or 8 hours later.

In the case of `CNCCC(Oc1ccc(C(F)(F)F)cc1)c1ccccc1` (stereo not drawn) [fluoxetine, reference compound], the “effect on the lesions of the white matter” value (10 mg/kg i.p., co-administration immediately after 10 μg ibotenate) is “No significant effect”.

As for `COc1ccc2cccc(CCNC(C)=O)c2c1` [agomelatine, N-[2-(7-methoxy-1-naphthyl)ethyl]acetamide], under “5 mg/kg i.p., co-administration immediately after 10 μg ibotenate intracerebral, 5-day-old mice”, the “reduction of the lesions of the white matter” value is recorded as 59%. The “effect on the lesions of the white matter (dose dependence)” value (0.005 to 5 mg/kg i.p., co-administration immediately after 10 μg ibotenate) was “dose-dependent reduction of the lesions of the white matter”. Besides, where the note is “co-treated concomitantly or after 8 hours, same lesions for first 24 hours, then over the next 4 days”, the “course of lesion size over time” value is “very major regression”. Moreover, the “neuroprotection with delayed administration” value is, setting by setting: (i.p. administration 8 hours after the injection of ibotenate) “significant neuroprotection is restored”; (i.p. administration between 0 and 4 hours after the injection of ibotenate) “decreases”.
